Measurements from patent publication US20250319172A1, “ANTICANCER VACCINE COMPOSITION COMPRISING HSP90 ANTIGENIC PEPTIDE AND USE THEREOF” (ASTON SCI. INC., priority 2021, published 2025).

System: HSP90 antigenic peptide-specific IFN-γ production in spleen cells
Assay: IFN-γ ELISpot of splenocytes after test vaccination (Th1 immune response), Example 1
Type: in vivo, C57BL/6 mice
Details: antigen HSP90 peptide of SEQ ID NO: 1; s.c. three times every 10 days; splenocytes 10 days after last inoculation; FIG. 1A
Protocol: To analyze the efficacy of antigenic peptides selected from HSP90 (see Table 1) and various adjuvants and liposomes, test vaccines were prepared with the compositions in Table 2 and Table 3. In the case of G6 and G7 formulations, since a liposome is included in the formulations, the drug release rate is slowed, and in this regard, the amount of antigenic peptide was reduced to 20% when preparing the test vaccine. The prepared test vaccine G to G7 formulations were immunized using C57BL/B6 mice (female, 7 weeks old), 4 mice per group. […]
The test vaccine was inoculated with each vaccine formulation by subcutaneous injection three times every 10 days for 4 mice in each group, and splenocytes were isolated from the spleens of mice sacrificed 10 days after the last inoculation, the specific response to each HSP90 antigenic peptide was measured through the ELISpot method for IFN-γ or IL-10 stimulated by the HSP90 antigenic peptide (stimulant) of SEQ ID NO: 1 or SEQ ID NO: 2 according to the previously known method by Disis et al. (J Clin Oncol. 2009 Oct. 1; 27 (28): 4685-92).
If HSP90 antigenic peptide-specific IFN-γ production increased in spleen cells measured by the ELISpot method after test vaccination, the Th1 immune response was considered activated, and if the HSP90 antigenic peptide-specific IL-10 production increased, the Th2 immune response was considered activated.

In the case of “LYVRRVFIMDNCEEL [SEQ ID NO: 1, HSP90 antigenic peptide, region p485-499 of HSP90]”, the “HSP90-specific Th1 immune response (IFN-γ ELISpot)” value is reported as “effectively induces HSP90-specific T cell immune response”.
